In brackets after ≈: the same amount, converted by molar mass. Activity calls are given as the source filed them. The calls are words filed in the database; no cut-off is given here.
How the values were obtained:
[1] = target: P2Y purinoceptor 2 (Homo sapiens) (UniProt P41231); assay: Antagonist activity at P2Y2 receptor at 10 uM; format: functional
[2] = target: T1, P2X purinoceptor 3 (Homo sapiens) (UniProt P56373); assay: Antagonist activity at P2X3 receptor at 10 uM; format: functional
T1 sequence (whole entry): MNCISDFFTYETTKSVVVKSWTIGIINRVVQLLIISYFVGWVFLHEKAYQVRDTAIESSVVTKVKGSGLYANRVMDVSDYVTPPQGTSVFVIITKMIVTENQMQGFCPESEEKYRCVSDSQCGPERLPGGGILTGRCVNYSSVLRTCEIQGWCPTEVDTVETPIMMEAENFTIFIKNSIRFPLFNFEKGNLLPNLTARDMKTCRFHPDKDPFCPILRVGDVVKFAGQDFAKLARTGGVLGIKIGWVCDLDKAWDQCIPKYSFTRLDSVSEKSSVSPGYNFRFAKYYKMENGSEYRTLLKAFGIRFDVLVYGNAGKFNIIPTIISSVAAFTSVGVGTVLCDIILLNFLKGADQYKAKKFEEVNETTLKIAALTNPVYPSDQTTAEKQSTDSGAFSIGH

[3] = target: P2X2/P2X3 heterotrimeric receptor (Homo sapiens) (UniProt Q9UBL9+P56373); assay: Antagonist activity at P2X2/3 receptor at 10 uM; format: functional
Blood [4] = assay: Inhibition of IL1-beta release in LPS/ATP stimulated human whole blood; format: functional, tissue-based
[5] = target: T2, P2X purinoceptor 4 (Homo sapiens) (UniProt Q99571); assay: Antagonist activity at P2X4 receptor at 10 uM; format: functional
T2 sequence (whole entry): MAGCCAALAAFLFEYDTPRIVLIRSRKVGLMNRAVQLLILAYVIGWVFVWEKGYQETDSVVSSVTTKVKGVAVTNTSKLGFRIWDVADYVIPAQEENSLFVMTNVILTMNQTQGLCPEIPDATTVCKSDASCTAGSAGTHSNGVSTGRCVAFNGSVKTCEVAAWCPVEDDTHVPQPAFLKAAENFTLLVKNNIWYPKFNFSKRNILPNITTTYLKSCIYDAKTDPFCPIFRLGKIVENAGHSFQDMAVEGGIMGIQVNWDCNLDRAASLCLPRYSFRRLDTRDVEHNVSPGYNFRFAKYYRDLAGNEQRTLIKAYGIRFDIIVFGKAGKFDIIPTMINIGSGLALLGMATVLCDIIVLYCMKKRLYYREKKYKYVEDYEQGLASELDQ

P2X purinoceptor 7 [6] = target: T3, P2X purinoceptor 7 (Homo sapiens, UniProt Q99572); assay: Antagonist activity at human recombinant P2X7 receptor assessed as inhibition of BzATP induced calcium flux by FLIPR assay; format: functional
T3 sequence (Q99572 whole entry): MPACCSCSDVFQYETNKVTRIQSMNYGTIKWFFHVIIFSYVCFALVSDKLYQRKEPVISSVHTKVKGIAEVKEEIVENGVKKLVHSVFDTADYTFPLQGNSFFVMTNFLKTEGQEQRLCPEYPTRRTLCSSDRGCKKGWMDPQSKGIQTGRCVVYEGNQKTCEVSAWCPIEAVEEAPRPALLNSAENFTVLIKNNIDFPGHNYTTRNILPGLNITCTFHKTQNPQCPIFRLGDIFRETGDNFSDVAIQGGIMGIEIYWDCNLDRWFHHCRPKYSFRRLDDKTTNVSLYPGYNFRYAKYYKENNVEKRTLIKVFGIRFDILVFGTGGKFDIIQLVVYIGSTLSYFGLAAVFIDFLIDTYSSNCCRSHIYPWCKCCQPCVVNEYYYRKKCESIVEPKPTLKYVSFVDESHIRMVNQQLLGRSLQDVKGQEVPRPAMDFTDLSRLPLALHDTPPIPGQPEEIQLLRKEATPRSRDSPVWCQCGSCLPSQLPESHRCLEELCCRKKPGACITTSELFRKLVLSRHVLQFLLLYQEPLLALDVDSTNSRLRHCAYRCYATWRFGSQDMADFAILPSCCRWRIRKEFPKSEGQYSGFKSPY

[7] = Plasma clearance in rat at 5 mg/kg, iv; format: ADME, organism-based; design: dose 5 mg/kg, route intravenous
[8] = Metabolic stability in rat liver microsomes assessed as compound remaining after 25 mins; format: ADME, Microsome; settings: read-out: Stability
[9] = Metabolic stability in rat liver microsomes assessed as compound remaining after 1 hr; format: ADME, Microsome; settings: read-out: Stability
P2X purinoceptor 7 [10] = target: T4, P2X purinoceptor 7 (Rattus norvegicus, UniProt Q64663); assay: Antagonist activity at rat recombinant P2X7 receptor assessed as inhibition of BzATP induced calcium flux by FLIPR assay; format: functional
T4 sequence (Q64663 whole entry): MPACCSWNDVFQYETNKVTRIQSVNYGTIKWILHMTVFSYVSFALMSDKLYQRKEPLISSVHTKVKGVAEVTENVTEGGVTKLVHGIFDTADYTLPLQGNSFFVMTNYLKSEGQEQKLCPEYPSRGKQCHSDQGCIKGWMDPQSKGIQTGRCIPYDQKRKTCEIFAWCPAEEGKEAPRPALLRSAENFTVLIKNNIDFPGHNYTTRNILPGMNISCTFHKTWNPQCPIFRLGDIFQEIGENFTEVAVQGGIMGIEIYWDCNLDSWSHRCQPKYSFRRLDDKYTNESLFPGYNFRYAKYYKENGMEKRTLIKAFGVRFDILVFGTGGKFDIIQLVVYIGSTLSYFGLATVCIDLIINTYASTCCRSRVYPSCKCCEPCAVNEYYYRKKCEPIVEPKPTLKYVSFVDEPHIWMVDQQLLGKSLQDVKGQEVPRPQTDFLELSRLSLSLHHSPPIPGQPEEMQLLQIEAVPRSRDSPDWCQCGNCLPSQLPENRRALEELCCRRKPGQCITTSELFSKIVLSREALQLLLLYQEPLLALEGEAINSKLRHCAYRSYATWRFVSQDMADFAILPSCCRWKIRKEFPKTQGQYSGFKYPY

[11] = Oral bioavailability in rat; format: ADME, organism-based; settings: in vivo
[12] = Volume of distribution at steady state in rat at 5 mg/kg, iv; format: ADME, organism-based; design: dose 5 mg/kg, route intravenous; settings: in vivo, read-out: Vdss
[13] = Aqueous solubility of the compound; format: physicochemical; settings: buffer
[14] = Half life in rat at 5 mg/kg, iv; format: ADME, organism-based; design: dose 5 mg/kg, route intravenous; settings: in vivo
Blood [15] = assay: Inhibition of IL18 release in LPS/ATP stimulated human whole blood; format: functional, tissue-based

Chain of P2Y purinoceptor 2 (Homo sapiens) (P41231 whole entry): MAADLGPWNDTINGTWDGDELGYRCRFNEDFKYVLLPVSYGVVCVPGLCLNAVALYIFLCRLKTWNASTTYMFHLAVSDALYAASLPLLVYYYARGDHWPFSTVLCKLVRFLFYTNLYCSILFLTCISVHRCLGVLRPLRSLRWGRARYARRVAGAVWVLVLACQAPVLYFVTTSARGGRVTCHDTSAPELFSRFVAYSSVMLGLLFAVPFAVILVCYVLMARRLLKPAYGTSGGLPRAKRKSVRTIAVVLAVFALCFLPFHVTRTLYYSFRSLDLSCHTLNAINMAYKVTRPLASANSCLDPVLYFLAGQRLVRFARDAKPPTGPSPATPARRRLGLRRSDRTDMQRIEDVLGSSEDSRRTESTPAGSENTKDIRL

SMILES | IC50 (Blood [4]) | IC50 (P2X purinoceptor 7 [6]) | IC50 (P2X purinoceptor 7 [10]) | further results
Cc1ccc2c(N/C(=N\C#N)N3CCN(C(=O)Nc4ccc(Cl)cc4)CC3C(C)C)cccc2n1 (configuration not stated) | 120 nM | – | – | Activity [1]: inactive; Activity [2]: inactive; Activity [3]: inactive; Activity [5]: inactive
CC(C)C1CN(C(=O)Nc2ccc(Cl)cc2)CCN1C(=Nc1cccc2ncccc12)NC#N (configuration not stated) | 121 nM | 40 nM | 57 nM | clearance [7]: 53.3 mL/min/kg; remaining at 25 min [8]: 43%; remaining at 1 h [9]: 43%
Cc1ccccc1N=C(NC#N)N1CCN(C(=O)Nc2ccc(Cl)cc2)CC1C(C)C (configuration not stated) | – | 60 nM | 125 nM | –
CC(C)C1CN(C(=O)Nc2cccc(F)c2)CCN1C(=Nc1cccc2[nH]ncc12)NC#N (configuration not stated) | 1590 nM | 250 nM | – | –
Cc1ccccc1N=C(NC#N)N1CCN(S(=O)(=O)c2ccc(Cl)cc2)C(c2ccccc2)C1 (configuration not stated) | – | 540 nM | 4060 nM | –
CC(C)C1CN(C(=O)Nc2ccc(Cl)cc2)CCN1/C(=N/C#N)Nc1cccc2[nH]ccc12 (configuration not stated) | 470 nM | 45 nM | 110 nM | –
CC(C)C1CN(C(=O)Nc2ccc(Cl)cc2)CCN1C(=Nc1cccc2c1CCNC2)NC#N (configuration not stated) | 210 nM | 110 nM | 180 nM | –
Cc1ccccc1N/C(=N\C#N)N1CCN(C(=O)Nc2ccc(Cl)cc2)C(C(C)C)C1 (configuration not stated) | 980 nM | 112 nM | 110 nM | –
Cc1ccc(N/C(=N\C#N)N2CCN(C(=O)Nc3ccc(Cl)cc3)CC2C(C)C)c2cccnc12 (configuration not stated) | – | – | – | remaining at 1 h [9]: 64%
Cc1ccc2c(N=C(NC#N)N3CCN(C(=O)Nc4ccc(Cl)cc4)CC3C(C)C)cccc2n1 (configuration not stated) | – | 93 nM | 151 nM | bioavailability [11]: 5%; Vd [12]: 11.8 L/kg; clearance [7]: 23.3 mL/min/kg; solubility [13]: 19 µg/mL (≈ 38.8 µM); remaining at 1 h [9]: 74%; half-life [14]: 4.4 h
N#C/N=C(\Nc1cccnc1)N1CCN(C(=O)Nc2ccc(Cl)cc2)C(c2ccccc2)C1 (configuration not stated) | – | 1330 nM | 2040 nM | –
Cc1ccccc1N/C(=N/C(N)=O)N1CCN(C(=O)Nc2ccc(Cl)cc2)C(c2ccccc2)C1 (configuration not stated) | – | 6400 nM | 10300 nM | –
Cn1cnc2c(N=C(NC#N)N3CCN(C(=O)Nc4ccc(Cl)cc4)C(c4ccccc4)C3)cccc21 (configuration not stated) | – | 1660 nM | 5190 nM | –
Cc1ccccc1NC(=O)N1CCN(C(=O)Nc2ccc(Cl)cc2)C(c2ccccc2)C1 (configuration not stated) | – | 780 nM | 620 nM | –
Cc1ccccc1N=C(NC#N)N1CCN(C(=O)N(C)c2ccc(Cl)cc2)C(c2ccccc2)C1 (configuration not stated) | – | 1030 nM | 290 nM | –
CC(C)C1CN(C(=O)Nc2ccc(Cl)cc2)CCN1/C(=N/C#N)Nc1cccc2nc(F)ccc12 (configuration not stated) | 2640 nM | – | – | remaining at 1 h [9]: 60%
Cc1ccccc1N/C(=C/[N+](=O)[O-])N1CCN(C(=O)Nc2ccc(Cl)cc2)C(c2ccccc2)C1 (configuration not stated) | – | 310 nM | 3110 nM | –
COc1ccc(CC(=O)N2CCN(C(=Nc3ccccc3C)NC#N)CC2c2ccccc2)cc1OC (configuration not stated) | – | 630 nM | – | –
CN(C)Cc1ccccc1N=C(NC#N)N1CCN(C(=O)Nc2ccc(Cl)cc2)C(c2ccccc2)C1 (configuration not stated) | – | 480 nM | 1070 nM | –
Cc1ccccc1N=C(NC#N)N1CCN(Cc2ccc(Cl)cc2)C(c2ccccc2)C1 (configuration not stated) | – | > 10000 nM | > 10000 nM | –
CC(C)C1CN(C(=Nc2cccc3ncccc23)NC#N)CCN1C(=O)Nc1ccc(Cl)cc1 (configuration not stated) | 880 nM | 67 nM | 93 nM | –
N#CNC(=Nc1cccc2[nH]ccc12)N1CCN(C(=O)Nc2ccc(Cl)cc2)C(c2ccccc2)C1 (configuration not stated) | 12200 nM | 130 nM | 56 nM | –
CC(C)C1CN(C(=O)Nc2cccc(F)c2)CCN1C(=Nc1cccc2c1CCCN2)NC#N (configuration not stated) | 460 nM | 60 nM | – | –
Cc1ccccc1N=C(NC#N)N1CCN(C(=O)Nc2ccc(Cl)cc2)C(c2ccccc2)C1 (configuration not stated) | 1190 nM | 132 nM | 95 nM | IC50 (Blood [15]): 1260 nM; Vd [12]: 5.3 L/kg; clearance [7]: 68.3 mL/min/kg; half-life [14]: 0.9 h
CC(C)C1CN(C(=O)Nc2cccc(F)c2)CCN1C(=Nc1cccc2occc12)NC#N (configuration not stated) | – | 24900 nM | – | –
COc1ccc(NC(=O)N2CCN(C(=Nc3ccccc3C)NC#N)CC2c2ccccc2)cc1OC (configuration not stated) | – | 25 nM | 178 nM | –

Reference: ChEMBL document CHEMBL1155124, “Synthesis and activity of N-cyanoguanidine-piperazine P2X7 antagonists” (Bioorg Med Chem Lett, 2008)
